system: not listed separately; experiment: pK of pH indicators; assay type: physicochemical; conditions: pH indicator
Procedure: In an alternative embodiment, the pH is determined using a pH indicator which changes colour on acid formation. The pH indicator is preferably added to the cariogenic bacteria together with the carbon source, e.g. by joint immobilization of pH indicator and carbon source on a test strip or by simultaneous addition of pH indicator and carbon source (preferably in the form of a single solution) to a diluted, undiluted or concentrated plaque or saliva sample. […] These comprise, e.g., the indicators bromocresol purple, bromocresol green, m-cresol purple, bromothymol blue, phenol red and chlorophenol red. […] The incubation time that must be applied until a colour change can be detected, depends on the carbon sources and test reagents used and also on their absolute and relative quantitative ratios to one another. In a preferred embodiment, the time period to a colour change of the pH indicator is less than 60 minutes, less than 45 minutes, less than 30 minutes, less than 20 minutes or less than 15 minutes after mixing bacteria, carbon source and indicator.

Row | pK | Compound
1 | 5.6 | O=S1(=O)OC(c2ccc(O)c(Cl)c2)(c2ccc(O)c(Cl)c2)c2ccccc21 [Chlorophenol red]
2 | 7 | Cc1c(C2(c3cc(C(C)C)c(O)c(Br)c3C)OS(=O)(=O)c3ccccc32)cc(C(C)C)c(O)c1Br [Bromothymol blue]
3 | 6 | Cc1cc(C2(c3cc(C)c(O)c(Br)c3)OS(=O)(=O)c3ccccc32)cc(Br)c1O [Bromocresol purple]
4 | 4.7 | Cc1c(C2(c3cc(Br)c(O)c(Br)c3C)OS(=O)(=O)c3ccccc32)cc(Br)c(O)c1Br [Bromocresol green]

Row | Compound | pK
5 | Cc1cc(O)ccc1C1(c2ccc(O)cc2C)OS(=O)(=O)c2ccccc21 [m-Cresol purple] | 8.2

system: S. sobrinus; experiment: Acid production in vitro by pure culture, colour change of pH indicator; assay type: cell-based; conditions: carbon source at 20% in the reaction batch, only S. sobrinus, FIG. 1
Procedure: Stock cultures of the strain selected for the experiments were stored on CRYOBANK (Mast Diagnostica, CRYO/M) ceramic supports at a temperature of −80° C. For culturing, a ceramic ring was placed into 10 ml of nutrient medium and incubated 14-72 h. This culture was designated passage 0 (P0). Then, 100 μl of culture were inoculated into 10 ml of fresh medium and incubated for 24 h. Cultures of passage 2 were used for the subsequent experiments on acid production. The cultures were diluted in this case until an absorption at 650 nm of about 0.6-1.0 was obtained. The bacterial suspensions were centrifuged at 8000 rpm for 5 minutes. The culture supernatant was removed and the pellet was resuspended in the same volume of water (10 ml, deionized, sterile). The sample was centrifuged again (8000 rpm, 5 minutes) and the supernatant was removed. The pellet was subsequently resuspended in 1 ml of deionized water which corresponds to 1/10 of the original volume. […] Then, the appropriate pH was adjusted and the mixture was filled up to the calculated volume using deionized water. […] After addition of the bacterial suspension to the respective test solution, the colour change of the pH indicator was assessed visually against a reference sample (only test solution) at regular intervals. […]

Row | Compound | time within which acid formation can be detected
6 | OC[C@H]1O[C@@](CO)(O[C@H]2O[C@H](CO)[C@@H](O)[C@H](O)[C@H]2O)[C@@H](O)[C@@H]1O [sucrose] | ≤ 15 min

Reference: patent US9260739B2, “Method for the detection of acid production by cariogenic bacteria” (Ivoclar Vivadent AG, priority 2010, dated 2016)
